Experimental data: US5175151A, “Antiviral compounds and antihypertensive compounds” (Schering Corporation, priority 1992, dated 1992)
In brackets after ≈: the same amount, converted by molar mass. Read-outs that look alike come from different tables or passages of the source.

What was measured:
HSV-2 (strain MS) = assay: HSV-β-Gal assay: transient expression of beta galactosidase in transfected HeLa cells superinfected with HSV-2 (in-vitro anti-HSV activity); assay type: cell-based
Experimental: HeLa and Vero cell cultures were maintained in Eagles Minimal Essential Medium which was supplemented with glutamine, penecillin, streptomycin and 10% fetal calf serum (10% EMEM). Stock cultures of HSV-2 (strain MS available from ATCC VR-540) were grown in and harvested from Vero cells. Viral stocks were titered in Vero cells according to established procedures.
Plasmid pON 245^ori- contains the promoter of the HSV-1 thymidine kinase (tk) gene located immediately 5' of the E. coli lac Z gene. In this arrangement, the tk promoter controls transcription from the bacterial gene in transient expression assays. Additionally, an SV40 polyadenylation signal is present at the 3' end of the lac Z gene to allow for the efficient translation of the mRNA in eucaryotic cells. The expression of beta galactosidase in a transient assay using pON 245^ori- is dependent upon superinfection of the transfected cells with HSV. […] For example, see U.S. application Ser. No. 07/435,491 filed Sep. 5, 1989, the disclosure of which is incorporated herein by reference thereto.
HeLa cells were seeded into 96 well microtiter plates and allowed to grow to 80% confluency (approximately 35,000 cells/well). One half microgram of plasmid pON 245^ori- DNA was introduced into the cells of each well by the […] precipitation technique (Graham and Van der Eb, 1973). Four to six hours later, the cells were rinsed with Hank's Balanced Salt Soluton (HBSS), overlaid with 10% EMEM and incubated at 37° C. At 24 hrs post-trasnfection, cells were rinsed, overlaid with 10% EMEM again and re-incubated at 37° C. At 48 hrs post-transfection, cells were rinsed and overlaid with either EMEM containing 2% fetal calf serum (2% EMEM, 2% EMEM containing HSV-2 (strain MS, Multiplicity of Infection [moi]=5 pfu/cell) or 2% EMEM containing HSV-2 and the appropriate concentration of the compound to be tested. Twenty-four hrs later, the cells were harvested and assayed to beta galactosidase activity as described below.
All determinations of beta galactosidase activity were performed in 96 well microtiter plates. The intracellular level of beta galactosidase activity in each well was determined from cell lysates of the monolayer cultures. Aliquots were assayed by incubation in the presence of beta galactosidase substrate, 4-methylumbelliferyl-β-D-galactoside (MUG, 125 ug/ml, Sigma), for 2 hrs. The generation of fluorescent product was quantified on a Microfluor microfluorimeter (Dynatech) after addition of 0.1M glycine, pH 10.3 (Spaete and Mocarski, 1985). The inhibitory activity of a compound was plotted versus the concentration and an IC50 value (the concentration of compound required to reduce beta glactosidase expression by 50%) was obtained for each compound tested.

[1] = target: T1, cGMP phosphodiesterase (cGMP-PDE) (Bos taurus, UniProt Q28156); assay: Phosphodiesterase inhibition in vitro (cGMP-PDE); assay type: biochemical; settings: bovine lung enzyme, 1 μM ^3 H-cGMP, pH 7.5, 25 minutes, room temperature
T1 construct: is a homogeneous enzyme obtained from bovine lung and purified by ion-exchange chromatography, gel filtration, and sucrose gradient centrifugation; from tissue; host or cells: bovine lung

[2] = Compound toxicity assay: ^3 H-LEU HeLa cell translation (cytotoxicity); assay type: cell-based; settings: human; HeLa cells, translational activity, overnight incubation at 37° C.; read-out: Cytotoxicity, ^3 H-LEU Assay IC50
Experimental: HeLa cells were treated with inhibitory compound for 24 hrs, after which levels of translational activity were assayed.
For assay of translational activity, HeLa cultures were grown to 80% confluency in 96 well microtiter plates, treated with appropriate concentrations of compound in 2% EMEM during an overnight incubation at 37° C., then rinsed with HBSS and overlaid with […] of 2% EMEM containing 8 uCi of tritiated leucine (^3 H-LEU, 141 Cu/mMol, Amersham Corp., Arlington Heights, Ill.). After a 1 hr incubation at 36.5° C., the cells were rinsed twice with phosphate buffered saline (PBS) and lysed in 400 ul/well of 1×PBS, 0.5% sodium dodecyl sulphate (SDS). After a 10 min incubation at 36.5° C., the contents of the well were transferred to a well in a Millititer HA microfiltration plate (Millipore Corp., Bedford, Mass.). The TCA insoluble proteins were precipitated onto the filter disc by a 10 min fixation with 5% TCA, followed by filtration over vacuum and three 10 minute rinses with 95% ethanol. The filters were dried at room temperature, cut from the milltitier plate and transferred to scintillation vials. TCA precipitable counts were assayed in 5 ml of Scintisol (Isolab, Akron, Ohio). The inhibitory activity of a compound was plotted versus the concentration and an IC50 value (that concentration of the compound required to decrease cellular translational activity by 50%) was derived for each compound.

[3] = tested on: spontaneously hypertensive rats (SHR); assay: SHR analysis: fall in mean blood pressure in conscious spontaneously hypertensive rats; assay type: in vivo, rat (SHR males); settings: for SHR MBP: 25 mpk (p.o.), Table IV
Experimental: The ability of the antihypertensive compounds of the present invention to lower blood pressure can be assessed in vivo in conscious spontaneously hypertensive rats (SHR). SHR males are purchased from Taconic Farms, Germantown, N.Y. and are approximately 16-18 weeks old when anesthetized with ether. The caudal (ventral tail) artery is cannulated with polyethylene tubing (PE50) and blood pressure and heart rate are recorded as described by Baum, T. et al, J. Cardiovasc. Pharmacol. Vol. 5, pp. 665-667, (1983). Rats are placed into plastic cylindrical cages where they rapidly recover consciousness. Blood pressure and heart rate are allowed to stabilize for approximately 90 minutes prior to compound administration. Compounds are administered orally as solutions or suspensions in 0.4% aqueous methylcellulose vehicle via a feeding needle. The compound or 0.4% aqueous methylcellulose vehicle are given in a volume of 4 ml/kg to SHRs that had been fasted overnight. Activity is expressed as the fall in mean blood pressure (MBP) in millimeters of mercury (mm Hg). Compound-induced changes are compared with the changes in an appropriate placebo group.

herpes virus [4] = settings: added to lidocaine or lidocaine hydrochloride; cited from earlier work
HSV = settings: cited from earlier work
HSV-1 = settings: cited from earlier work
herpes virus [5] = settings: cited from earlier work
HSV-2 = settings: cited from earlier work
[6] = Human alphaherpesvirus 2, HeLa cells, HSV-2 strain MS, moi 5 pfu/cell, 24 hrs, read-out: Anti-HSV Activity, HSV-β-Gal Assay IC50
[7] = Human alphaherpesvirus 2, *Repeat, HeLa cells, HSV-2 strain MS, moi 5 pfu/cell, 24 hrs, read-out: Anti-HSV Activity, HSV-β-Gal Assay IC50 (repeat)

IC50 (HSV-2 (strain MS); [6]) [µg/mL]	IC50 [1] [µM]	SMILES	CC50 [2] [µg/mL]	further results
> 25	–	CN(C)CCOc1cc(=O)c2ccccc2n1C [Compound 1, 1-Methyl-2-(2-Dimethylaminoethoxy)-4(1H)-Quinolinone]	–	–
13 (≈ 46.5 µM)	6	COc1cc(=O)c2cc(C)ccc2n1Cc1ccccc1 [Compound 3, 1-Benzyl-2-Methoxy-6-Methyl-4(1H)-Quinolinone]	85 (≈ 304 µM)	–
20 (≈ 75.4 µM)	2.6	COc1cc(=O)c2ccccc2n1Cc1ccccc1 [Compound 4, 1-Benzyl-2-Methoxy-4(1H)-Quinolinone]	45 (≈ 170 µM)	–
9 (≈ 32.9 µM)	5.9	CCCCCCCn1c(OC)cc(=O)c2ccccc21 [Compound 5, 1-Heptyl-2-Methoxy-4(1H)-Quinolinone]	45 (≈ 165 µM)	–
5 (≈ 17.3 µM)	–	CCCCCCn1c(OC)cc(=O)c2cccc(OC)c21 [Compound 7, 1-Hexyl-2,8-Dimethoxy-4(1H)-Quinolinone]	21 (≈ 72.6 µM)	IC50 (HSV-2 (strain MS); [7]): 8 µg/mL (≈ 27.6 µM)
3 (≈ 8.54 µM)	–	CCOC(=O)c1c(OC)n(Cc2ccccc2)c2ccc(C)cc2c1=O [Compound 9, 1-Benzyl-2-Methoxy-3-Carbethoxy-6-Methyl-4-(1H)-Quinolinone]	79 (≈ 225 µM)	–
18 (≈ 81.7 µM)	13	COc1cc(=O)c2ccc(OC)c(C)c2o1 [Compound 10, 2,7-Dimethoxy-8-Methyl-1,4-Benzopyrone]	> 100	–
10 (≈ 32.3 µM)	–	COc1cc(=O)c2cc(C)c(C)cc2n1Cc1ccc(O)cc1 [Compound 11]	–	–
4 (≈ 12.7 µM)	–	COc1c(Cl)c(=O)c2cc(C)ccc2n1Cc1ccccc1 [Compound 12]	12 (≈ 38.2 µM)	–
4 (≈ 10.2 µM)	–	COc1c(I)c(=O)c2ccccc2n1Cc1ccccc1 [Compound 13]	27 (≈ 69 µM)	–
> 25	–	Cn1c(OCCO)cc(=O)c2ccccc21 [Compound 14]	–	–
–	–	COc1cc(=O)c2cccc(C)c2n1C [Compound 15]	–	SHR MBP (fall in mean blood pressure) ([3]; 25 mpk (P.O.), Table III): 12 mm of Hg
–	0.6	CCCCCCn1c(OC)cc(=O)c2cc(C)ccc21 [Compound 16]	–	–
–	14	CCCCCCn1c(OC)c(C(=O)OCC)c(=O)c2ccccc21 [Compound 17]	–	–
–	> 100	COc1cc(=O)c2cc(OCc3ccccc3)ccc2n1Cc1ccccc1 [R H, R1 --CH3, R2 6-OCH2 Ph, R3 --CH2 Ph]	–	–
–	> 100	COc1ccc2c(c1)c(=O)cc(OC)n2Cc1ccccc1 [R H, R1 --CH3, R2 6-OCH3, R3 --CH2 Ph]	–	–
–	> 100	COc1cc(=O)c2ccc(Cl)cc2n1C [R H, R1 --CH3, R2 7-Cl, R3 --CH3]	–	SHR MBP [3]: -7 mm of Hg
–	> 100	COC(=O)Cn1c(OC)cc(=O)c2ccccc21 [R H, R1 --CH3, R2 --, R3 --CH2 CO2 CH3]	–	–
–	–	CC(C)(CO)[C@@H](O)C(=O)NCCCO [dexpanthenol]	–	enhancement of antiviral activity on addition to lidocaine or lidocaine hydrochloride (herpes virus [4]): significantly enhances the antiviral activity
–	–	CCN(CC)CC(=O)Nc1c(C)cccc1C [lidocaine, 2-(diethylamino)-N-(2,6-dimethylphenyl)acetamide]	–	treatment of HSV oral and genital lesions in humans (HSV): particularly effective; antiviral agent in cell culture against HSV-1 (HSV-1): antiviral agent; treatment of herpes virus infections of mammals (herpes virus [5]): able to treat herpes virus infections of mammals; antiviral agent in cell culture against HSV-2 (HSV-2): antiviral agent
–	–	CC(C)(CO)[C@@H](O)C(=O)NCCC(=O)O [pantothenic acid]	–	enhancement of antiviral activity on addition to lidocaine or lidocaine hydrochloride (herpes virus [4]): significantly enhances the antiviral activity

SMILES	IC50 (HSV-2 (strain MS); [6]) [µg/mL]	IC50 [1] [µM]	CC50 [2] [µg/mL]	further results
CCCCCCn1c(OC)cc(=O)c2cccc(C)c21 [Compound 6, 1-Hexyl-2-Methoxy-8-Methyl-4(1H)-Quinolinone]	–	> 100	27 (≈ 98.8 µM)	IC50 (HSV-2 (strain MS); Human alphaherpesvirus 2, HeLa, 24 h, read-out: Anti-HSV Activity, HSV-β-Gal Assay IC50): 3 µg/mL (≈ 11 µM); IC50 (HSV-2 (strain MS); [7]): 6 µg/mL (≈ 21.9 µM); SHR MBP [3]: -1 mm of Hg
COc1cc(=O)c2cc(C)c(C)cc2n1Cc1ccc(O[Si](C)(C)C(C)(C)C)cc1 [Compound 8, 1-[4-(t-Butyl-Dimethylsilyloxy)] Benzyl-2-Methoxy-6,7-Dimethyl-4-(1H)-Quinolinone]	2 (≈ 4.72 µM)	–	25 (≈ 59 µM)	–
